Consider three compounds from patent US6723331B1, “Termite-controlling agent and a controlling method thereof” (Sumitomo Chemical Company, Limited, priority 1992, dated 2004).

Usually mortality stands for the percentage killed.

For this test, the system named is Formosan subterranean termites (Coptotermes formosanus). Briefly: whole plant or invertebrate. The conditions noted are these: soil, 72 h. As to the method:
The emulsifiable concentrates obtained in Formulation Examples 1, 2 and 3 were each diluted with distilled water to a predetermined concentration. Five milliliters of every dilute chemicals solution was added to 100 g of sandy loam previously heat-sterilized, and the mixture was thoroughly mixed to prepare a test soil. This test soil was stored at 40° C. under a dark condition. After storage for a predetermined period of time (2 months and 3 months), about 15 g of the test soil was put in a plastic dish (diameter, 9 cm; height, 2 cm) and wetted. Twenty workers of Formosan subterranean termites (Coptotermes formosanus) were liberated in the plastic dish. After the dish was kept at room temperature for 3 days, the condition of the termites was observed.
For comparison, the same test was also carried out using each of fenvalerate and MGK 264.
The same test as in Test Example 1 was carried out using the emulsifiable concentrates obtained in Formulation Examples 6 and 7.
For comparison, the same test was also carried out using each of permethrin and MGK 264.

[1] abbreviates: read-out: Mortality (%) after 3 days.

Read-outs that look alike come from different tables or passages of the source.

Turning to `CC(C)C(C(=O)OC(C#N)c1cccc(Oc2ccccc2)c1)c1ccc(Cl)cc1` (stereo not drawn) [Fenvalerate, α-cyano-3-phenoxy-benzyl-2-(4-chlorophenyl)-3-methylbutyrate], the mortality at 125 ppm by setting is: (read-out: Mortality (%) after 3 days, 125 ppm, treated soil stored 2 months at 40° C., Table 1) 0%; (read-out: Mortality (%) after 3 days, 125 ppm, treated soil stored 3 months at 40° C., Table 1) 0%. For the same compound, the mortality at 250 ppm came out at 0% (read-out: Mortality (%) after 3 days, 250 ppm, treated soil stored 2 months at 40° C., Table 1) and 0% (read-out: Mortality (%) after 3 days, 250 ppm, treated soil stored 3 months at 40° C., Table 1).

Take `CCCCC(CC)CN1C(=O)C2C3C=CC(C3)C2C1=O` (centres unmarked) [MGK 264, N-(2-ethylhexyl)bicyclo[2.2.1]hept-5-en-2,3-dicarboximide]: under setting [1], the mortality at 500 ppm amounted to 0% and the mortality at 1000 ppm amounted to 0%.

Regarding `CC1(C)C(C=C(Cl)Cl)C1C(=O)OCc1cccc(Oc2ccccc2)c1` (centres unmarked) [Permethrin, 3-phenoxybenzyl 3-(2,2-dichlorovinyl)-2,2-dimethylcyclopropanecarboxylate], the mortality at 125 ppm runs as follows: (read-out: Mortality (%) after 3 days, 125 ppm, treated soil stored 2 months at 40° C., Table 2) 80%; (read-out: Mortality (%) after 3 days, 125 ppm, treated soil stored 3 months at 40° C., Table 2) 30%.
